Test results as given in patent US9115073B2, “1,3-diphenylpropane derivatives, preparations and uses thereof” (GENFIT, priority 2011, dated 2015).

Legend:
db/db mice = experiment: Diabetes model (db/db mice): non-fasting glycemia and HbA1c; assay type: in vivo, mouse
Description: Diabetes Model (db/db Mice)
The male db/db mice (8 to 9 week-old) were purchased from CERJ JANVIER (Le Genest Saint Isle, France). Animal care and handling was performed according to the Declaration of Helsinki and was approved by the local ethics committees. The animals were kept under a 12 hour light/dark standard light cycle and had free access to water and food. Animals were fed standard rodent chow diet (A03 SAFE, Augy, France). Mice were randomly assigned into different treatment groups, weighed and dosed by oral gavage (10 ml/kg body weight) once daily in the morning, either with the vehicle or with the compound. The vehicle used was 0.1% Tween 80 (Polyoxyethylenesorbitan monooleate) and 1% carboxymethylcellulose in 98.9% distilled water. The entire treatment protocol took 37 days. Non-fasting glycemia was measured at 8 A.M. with the Smart Check blood glucose monitoring system, in mice that have had unrestricted access to food and water throughout the night. The blood concentration of the glycosylated hemoglobin A1c was determined using the Randox kit for Daytona automate (Randox, cat# HA 3830) according to the manufacturer's recommendations. The HbA1c result was calculated as a percentage of the total hemoglobin concentration.

hPPARalpha = target: T1, hPPARalpha (Homo sapiens, UniProt Q07869); experiment: Gal4-hPPARalpha transactivation assay in COS-7 cells (luciferase); assay type: cell-based
T1 construct: Gal4-hPPARα(LBD); Gal4 (fusion partner); expressed in transfected cells; host or cells: COS-7 (monkey kidney)
T1 sequence (Q07869 239-466 limits assumed): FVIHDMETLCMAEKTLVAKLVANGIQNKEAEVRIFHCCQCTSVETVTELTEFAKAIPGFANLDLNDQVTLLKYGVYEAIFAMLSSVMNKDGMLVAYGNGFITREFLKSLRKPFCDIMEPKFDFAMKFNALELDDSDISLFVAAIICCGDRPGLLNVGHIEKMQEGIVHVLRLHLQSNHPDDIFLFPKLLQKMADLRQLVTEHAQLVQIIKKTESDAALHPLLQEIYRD
Method in brief: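 COS-7 cells transiently co-transfected with Gal4-hPPAR chimeras and a Gal4(RE)_TkpGL3 luciferase reporter (1/50 ratio) were seeded at 20,000 cells/well for 4 h, then treated in 2% lipid-free synthetic serum medium (0.1% DMSO). EC50 and Hill slope came from fitted luciferase curves. Emax is relative to fenofibrate 100 μM (α), rosiglitazone 10 μM (γ) or GW501516 1 μM (δ).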

[1] = test system: brain amyloid-beta levels; experiment: Alzheimer's disease model (APPPS1 mice): brain amyloid-beta levels by ELISA; assay type: in vivo, mouse; conditions: 60 days, +/- standard deviation
[2] = treated group, start of study period

EC50 (hPPARalpha; Gal4-hPPARα(LBD) transactivation): 12 nM | Gal4-hPPARα(LBD) TOP (% ref) (hPPARalpha; maximal relative activation vs reference, listed as cpd 14-1-2): 46 % ref
Compound: COC(c1ccc(OC(F)(F)F)cc1)C1CC1c1cc(C)c(OC(C)(C)C(=O)O)c(C)c1 (single isomer, unassigned) [Cpd 14-1-2, 2-(4-(2-(methoxy(4-(trifluoromethoxy)phenyl)methyl)cyclopropyl)-2,6-dimethylphenoxy)-2-methylpropanoic acid]
Non-fasting glycemia (db/db mice; 3 mg per kg per day by gavage, day 30): 146 mg/dL | glycated hemoglobin (HbA1c) (db/db mice; 3 mg per kg per day by gavage, day 37): 4.12% | decrease of non-fasting glycemia during the study period (db/db mice; 3 mg per kg per day by gavage, start to day 30): 48% | change in HbA1c during the study period (db/db mice; 3 mg per kg per day by gavage, start to day 37): no significant change | non-fasting glycemia lower as compared to untreated controls (db/db mice; 3 mg per kg per day, day 30, t-test p-value <0.0001): 60% | HbA1c lower as compared to the diabetic controls (db/db mice; 3 mg per kg per day, day 37, t-test p-value <0.01): 28% | Non-fasting glycemia (db/db mice; [2]): 258 mg/dL | glycated hemoglobin (HbA1c) (db/db mice; [2]): 4.16% | amyloid-beta peptide Aβ 1-38, mean reduction from untreated APPPS1 mice ([1]; 1 mpk per day): 76 % +/− 16 % (**) | amyloid-beta peptide Aβ 1-40, mean reduction from untreated APPPS1 mice ([1]; 1 mpk per day): 55 % +/− 17 % (**) | amyloid-beta peptide Aβ 1-42, mean reduction from untreated APPPS1 mice ([1]; 1 mpk per day): 56 % +/− 19 % (**) | amyloid-beta peptide Aβ 1-38, mean reduction from untreated APPPS1 mice ([1]; 10 mpk per day): 97 % +/− 3 % (**) | amyloid-beta peptide Aβ 1-40, mean reduction from untreated APPPS1 mice ([1]; 10 mpk per day): 72 % +/− 14 % (**) | amyloid-beta peptide Aβ 1-42, mean reduction from untreated APPPS1 mice ([1]; 10 mpk per day): 74 % +/− 14 % (**)
